Here are results for 14 compounds from patent US12606556B2, “TYK-2 inhibitor” (BEIGENE, LTD., priority 2020, dated 2026).

For test [1], the target named is T1, TYK2-JH2 (aa 575-869, in-house) protein (Homo sapiens, UniProt P29597).
T1 construct: TYK2-JH2 (aa 575-869, in-house) protein; made in house
In words: TYK2-JH2 biochemical assay (HTRF, blocking of TYK2-JH2 protein with its probe). It is filed as binding. Conditions: for IC50: HTRF, 0.2 nM recombinant TYK2-JH2, Probe 1; for Biochemical assay Selectivity fold (TYK2/JAK1): TYK2-JH2 vs JAK1-JH2 biochemical IC50. The method, boiled down: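 Recombinant TYK2-JH2 (0.2 nM) pre-incubated with compounds (10 doses, 5-fold dilutions) 0.5 h at RT in HEPES pH 7.5 buffer with MgCl2, BSA, DTT, Brij-35; biotinylated probe (10 nM working solution, KD=10 nM) plus anti-6His Tb cryptate/streptavidin-XL665 added, 1 h RT. HTRF ratio read; IC50 from four-parameter logistic fit.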
(In TR-FRET formats the signal depends on donor and acceptor labels being close together.)

The test system of test [2] is JAK1/p-STAT3(Tyr705) activated by IL-6 in TF-1 cell line. In words: IL-6-JAK1/p-STAT3(Tyr705) inhibition cellular assay. The class given is cell-based. To be noted: Homo sapiens, read-out: Cellular assay pSTAT3/IL-6 IC50.
Test [3] concerns the target T2, JAK1-JH2 protein (aa 561-860, in-house) (Homo sapiens, UniProt P23458).
T2 construct: JAK1-JH2 protein (aa 561-860, in-house); made in house
The test can be described thus: JAK1-JH2 biochemical assay (HTRF, blocking of JAK1-JH2 protein with its probe). To be noted: 1.17 nM recombinant JAK1-JH2, Probe 2. It is filed as binding. The method, boiled down:
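HTRF probe-displacement assay using recombinant human JAK1 pseudokinase domain (aa 561-860, 1.17 nM in pre-incubation step), pre-incubated 0.5 h at room temperature with 10-dose 5-fold compound series. Buffer: 20 mM HEPES pH 7.5, 10 mM MgCl2, 0.005% BSA, 2 mM DTT, 0.015% Brij-35. IC50 by four-parameter logistic fit of 615/665 nm ratio.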

The subject of test [4] is JAK2, TYK2/p-STAT4 (Tyr693) activated by IL-12 in NK-92 cell line. The test can be described thus: IL-12-JAK2, TYK2/p-STAT4 (Tyr693) inhibition cellular assay. Conditions: for IC50: NK92, 0.5 h, read-out: Cellular assay pSTAT4/IL-12 IC50; for Cellular assay Selectivity fold (TYK2/JAK1): pSTAT4/IL-12 vs pSTAT3/IL-6 cellular IC50. The class given is cell-based. A digest of the protocol:
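NK-92 cells were starved overnight without IL-2 and seeded at 5×10^4 per well in 1640 medium with 0.1% BSA. Lysate p-STAT4 (Tyr693) was measured by AlphaLISA SureFire, and IC50 was fitted with a 4-parameter logistic model.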

The mark [5] stands for this setting: 0.5 h, TF-1 cells, IL-6 50 ng/ml, 30 min.
Where [6] appears, read: NK-92 cells, IL-12 40 ng/ml, 30 min.

Each structure is given as a SMILES string. Read-outs that look alike come from different tables or passages of the source.

T2 sequence (P23458 561-860): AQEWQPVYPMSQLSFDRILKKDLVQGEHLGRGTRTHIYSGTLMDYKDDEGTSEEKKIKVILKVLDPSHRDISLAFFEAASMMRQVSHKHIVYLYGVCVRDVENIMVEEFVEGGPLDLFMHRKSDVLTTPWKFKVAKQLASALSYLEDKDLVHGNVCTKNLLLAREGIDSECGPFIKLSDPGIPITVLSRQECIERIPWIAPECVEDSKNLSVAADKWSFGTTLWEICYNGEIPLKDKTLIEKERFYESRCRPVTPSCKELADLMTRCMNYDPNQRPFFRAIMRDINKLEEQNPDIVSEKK
T1 sequence (P29597 575-869): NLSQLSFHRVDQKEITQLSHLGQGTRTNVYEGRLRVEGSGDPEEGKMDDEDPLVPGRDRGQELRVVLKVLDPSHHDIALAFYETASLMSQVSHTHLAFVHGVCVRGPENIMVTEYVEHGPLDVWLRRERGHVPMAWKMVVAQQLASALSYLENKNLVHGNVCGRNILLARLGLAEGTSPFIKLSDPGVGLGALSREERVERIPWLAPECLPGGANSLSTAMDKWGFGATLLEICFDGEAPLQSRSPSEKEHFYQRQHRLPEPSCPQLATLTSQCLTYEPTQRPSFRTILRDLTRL

For `CNC(=O)c1nnc(NC(=O)C2CC2)cc1Nc1nc2ccc(N3CC(O)C3)cn2n1` [Example H1, 6-(cyclopropanecarboxamido)-4-((6-(3-hydroxyazetidin-1-yl)-[1,2,4]triazolo[1,5-a]pyridin-2-yl)amino)-N-methylpyridazine-3-carboxamide], the IC50 was 0.057 nM in test [1], more than 10000 nM in test [2] (setting [5]), 1.2 nM in test [3] and 34.2 nM in test [4] (setting [6]). The “Biochemical assay Selectivity fold (TYK2/JAK1)” value in test [1] is given as 21 fold. The “Cellular assay Selectivity fold (TYK2/JAK1)” value in test [4] is reported as more than 292 fold.

On to `CNC(=O)c1nnc(NC(=O)C2CC2)cc1Nc1nc2ccc(N3CC(F)(CO)C3)cn2n1` [Example J1, 6-(cyclopropanecarboxamido)-4-((6-(3-fluoro-3-(hydroxymethyl)azetidin-1-yl)-[1,2,4]triazolo[1,5-a]pyridin-2-yl)amino)-N-methylpyridazine-3-carboxamide], for which the IC50 in test [1] was 0.086 nM; in test [2] (setting [5]), more than 10000 nM; in test [3], 1.8 nM; in test [4] (setting [6]) it was 15.6 nM. Moreover, the “Biochemical assay Selectivity fold (TYK2/JAK1)” value in test [1] is reported as 21 fold. Also, the “Cellular assay Selectivity fold (TYK2/JAK1)” value in test [4] was more than 641 fold.

As to `CNC(=O)c1nnc(NC(=O)C2CC2)cc1Nc1nc2ccc(N3CCC3CO)cn2n1` (stereo not drawn) [Example J2, 6-(cyclopro-panecar-boxamido)-4-((6-(2-(hydroxy-methyl)azetidin-1-yl)-[1,2,4]triazolo[1,5-a]pyridin-2-yl)amino)-N-methyl-pyridazine-3-carboxamide], the IC50 in test [1] turned out to be 0.053 nM; in test [2] (setting [5]), 4360 nM; in test [3], 1.3 nM; in test [4] (setting [6]), 14.9 nM. For the same compound, the “Biochemical assay Selectivity fold (TYK2/JAK1)” value in test [1] is 25 fold. In test [4], the “Cellular assay Selectivity fold (TYK2/JAK1)” value is 292 fold.

Turning to `CNC(=O)c1nnc(NC(=O)C2CC2)cc1Nc1nc2ccc(N3C(=O)CC3c3ccccc3)cn2n1` (stereo not drawn) [Example K1, 6-(cyclopropanecarboxamido)-N-methyl-4-((6-(2-oxo-4-phenylazetidin-1-yl)-[1,2,4]triazolo[1,5-a]pyridin-2-yl)amino)pyridazine-3-carboxamide], the IC50 in test [1] was 0.5 nM; in test [2] (setting [5]), more than 10000 nM; in test [3], 3.8 nM; in test [4] (setting [6]), 219 nM. Besides, in test [1], the “Biochemical assay Selectivity fold (TYK2/JAK1)” value is on record as 8 fold. The “Cellular assay Selectivity fold (TYK2/JAK1)” value in test [4] is more than 46 fold.

With `CNC(=O)c1nnc(NC(=O)C2CC2)cc1Nc1nc2ccc(C3CN(S(C)(=O)=O)C3)cn2n1` [Example L1, 6-(cyclopropanecarboxamido)-N-methyl-4-((6-(1-(methylsulfonyl)azetidin-3-yl)-[1,2,4]triazolo[1,5-a]pyridin-2-yl)amino)pyridazine-3-carboxamide], the IC50 in test [1] is 0.093 nM; in test [2] (setting [5]) it was more than 10000 nM; in test [3] it was 3.7 nM; in test [4] (setting [6]), 50.9 nM. The “Biochemical assay Selectivity fold (TYK2/JAK1)” value in test [1] is 40 fold. For the same compound, the “Cellular assay Selectivity fold (TYK2/JAK1)” value in test [4] is on record as more than 196 fold.

On to `CNC(=O)c1nnc(NC(=O)C2CC2)cc1Nc1nc2ccc(C3CN(C(C)=O)C3)cn2n1` [Example L2, 4-((6-(1-acetylazetidin-3-yl)-[1,2,4]triazolo[1,5-a]pyridin-2-yl)amino)-6-(cyclopropanecarboxamido)-N-methylpyridazine-3-carboxamide], for which the IC50 in test [1] is 0.081 nM; in test [2] (setting [5]), more than 10000 nM; in test [3] it was 2.6 nM; in test [4] (setting [6]), 276 nM. Moreover, the “Biochemical assay Selectivity fold (TYK2/JAK1)” value in test [1] worked out at 32 fold. Also, the “Cellular assay Selectivity fold (TYK2/JAK1)” value in test [4] is on record as more than 36 fold.

In the case of `CNC(=O)c1nnc(NC(=O)C2CC2)cc1Nc1nc2ccc(C3CN(C(=O)c4cccnc4)C3)cn2n1` [Example L3, 6-(cyclopropanecarboxamido)-N-methyl-4-((6-(1-nicotinoylazetidin-3-yl)-[1,2,4]triazolo[1,5-a]pyridin-2-yl)amino)pyridazine-3-carboxamide], the IC50 was 0.072 nM in test [1], more than 10000 nM in test [2] (setting [5]), 1.5 nM in test [3] and 127 nM in test [4] (setting [6]). For the same compound, the “Biochemical assay Selectivity fold (TYK2/JAK1)” value in test [1] was found to be 21 fold. Further, the “Cellular assay Selectivity fold (TYK2/JAK1)” value in test [4] is on record as more than 79 fold.

On to `CNC(=O)c1nnc(NC(=O)C2CC2)cc1Nc1nc2ccc(C3CN(C(=O)c4ncn(C)n4)C3)cn2n1` [Example L5, 6-(cyclopropanecarboxamido)-N-methyl-4-((6-(1-(1-methyl-1H-1,2,4-triazole-3-carbonyl)azetidin-3-yl)-[1,2,4]triazolo[1,5-a]pyridin-2-yl)amino)pyridazine-3-carboxamide], for which the IC50 in test [1] is 0.076 nM; in test [2] (setting [5]), more than 10000 nM; in test [3], 1.7 nM; in test [4] (setting [6]) it was 2000 nM. Further, in test [1], the “Biochemical assay Selectivity fold (TYK2/JAK1)” value was 22 fold. Also, the “Cellular assay Selectivity fold (TYK2/JAK1)” value in test [4] is reported as more than 5 fold.

For the compound `CNC(=O)c1nnc(NC(=O)C2CC2)cc1Nc1nc2ccc(C3CN(C(=O)N4CCOCC4)C3)cn2n1` [Example L6, 6-(cyclopropanecarboxamido)-N-methyl-4-((6-(1-(morpholine-4-carbonyl)azetidin-3-yl)-[1,2,4]triazolo[1,5-a]pyridin-2-yl)amino)pyridazine-3-carboxamide], the IC50 was 0.04 nM in test [1], more than 10000 nM in test [2] (setting [5]), 1.5 nM in test [3] and 86 nM in test [4] (setting [6]). In test [1], the “Biochemical assay Selectivity fold (TYK2/JAK1)” value turned out to be 38 fold. Also, the “Cellular assay Selectivity fold (TYK2/JAK1)” value in test [4] is recorded as more than 117 fold.

With `CNC(=O)c1nnc(NC(=O)C2CC2)cc1Nc1nc2ccc(C3CN(C)C3)cn2n1` [Example M1, 6-(cyclopropanecarboxamido)-N-methyl-4-((6-(1-methylazetidin-3-yl)-[1,2,4]triazolo[1,5-a]pyridin-2-yl)amino)pyridazine-3-carboxamide], the IC50 in test [1] was 0.26 nM; in test [2] (setting [5]) it was more than 10000 nM; in test [3], 2.6 nM; in test [4] (setting [6]), 63 nM. Further, the “Biochemical assay Selectivity fold (TYK2/JAK1)” value in test [1] amounted to 10 fold. Also, in test [4], the “Cellular assay Selectivity fold (TYK2/JAK1)” value is more than 158 fold.

As to `CNC(=O)c1nnc(NC(=O)C2CC2)cc1Nc1nc2c(OC)cc(N3CCC3)cn2n1` [Example N1, 4-((6-(azetidin-1-yl)-8-methoxy-[1,2,4]triazolo[1,5-a]pyridin-2-yl)amino)-6-(cyclopropanecarboxamido)-N-methylpyridazine-3-carboxamide], the IC50 is 0.87 nM in test [1], more than 10000 nM in test [2] (setting [5]), 1.4 nM in test [3] and 687 nM in test [4] (setting [6]). Further, the “Biochemical assay Selectivity fold (TYK2/JAK1)” value in test [1] was 2 fold. In addition, in test [4], the “Cellular assay Selectivity fold (TYK2/JAK1)” value is recorded as more than 14 fold.

Consider `CNC(=O)c1nnc(NC(=O)C2CC2)cc1Nc1nc2c(F)cc(N3CCC3)cn2n1` [Example N2, 4-((6-(azetidin-1-yl)-8-fluoro-[1,2,4]triazolo [1,5-a]pyridin-2-yl)amino)-6-(cyclopropanecarboxamido)-N-methylpyridazine-3-carboxamide], for which the IC50 in test [1] was determined as 0.063 nM; in test [2] (setting [5]), 9640 nM; in test [3], 1.28 nM; in test [4] (setting [6]) it was 14 nM. In addition, in test [1], the “Biochemical assay Selectivity fold (TYK2/JAK1)” value was 20 fold. Also, the “Cellular assay Selectivity fold (TYK2/JAK1)” value in test [4] is on record as 688 fold.

Turning to `CNC(=O)c1nnc(NC(=O)C2CC2)cc1Nc1nc2c(C)cc(N3CCC3)cn2n1` [Example N3], the IC50 in test [1] was found to be 0.089 nM; in test [2] (setting [5]) it was 4100 nM; in test [3], 1.47 nM; in test [4] (setting [6]), 21 nM. For the same compound, the “Biochemical assay Selectivity fold (TYK2/JAK1)” value in test [1] was determined as 17 fold. Further, the “Cellular assay Selectivity fold (TYK2/JAK1)” value in test [4] amounted to 192 fold.

In the case of `CNC(=O)c1nnc(NC(=O)C2CC2)cc1Nc1nc2ccc(C(=O)N3CCC3)cn2n1` [Example O1, 4-((6-(azetidine-1-carbonyl)-[1,2,4]triazolo[1,5-a]pyridin-2-yl)amino)-6-(cyclopropanecarboxamido)-N-methylpyridazine-3-carboxamide], the IC50 came to 0.17 nM in test [1]; 4880 nM in test [2] (TF-1, 0.5 h); 1.06 nM in test [3]; 169 nM in test [4]. Further, the “Biochemical assay Selectivity fold (TYK2/JAK1)” value in test [1] turned out to be 6 fold. Further, the “Cellular assay Selectivity fold (TYK2/JAK1)” value in test [4] was 28 fold.
